Series [1] is described as follows: Refractive index (Kruess AR 4 D Abbe refractometer). The series is classed as physicochemical. Conditions: 20.0° C., wavelength 589 nm. As for the experimental part: The refractive index of the halogenated epoxy functional ether derivative was measured with a Kruess AR 4 D device (refractometer according to Abbe's measure principle). The refractive index was measured at 20.0° C. and at a wavelength of 589 nm.

The subject of series [2] is Salmonella Strains TA98 and TA100. Nature of the series: AMES mutagenicity testing protocol (OECD Guideline 471, ISO 10993-3). Also on record: key: tested to be non mutagenic. Type of series: cell-based. From the text:
The mutagenicity of the halogenated epoxy functional ether derivative according to the AMES mutagenicity testing protocol has been tested according to OECD Guideline 471 and ISO 10993-3 (2003).

`CC(C)(c1ccc(OCCC2CO2)cc1)c1ccc(OCCC2CO2)cc1` (stereo not shown) [Reference Compound 4, 2,2-Bis[4-(3,4-epoxy-butyloxy)-phenyl]-propane, reference compound]: in series [1], the “Refractive Index” value was found to be 1.563. For the compound “1,5-Bis[2-(2,3-epoxy-propyl)-6-chloro-phenyl]-pentane [Example 1]”, the “Refractive Index” value in series [1] is listed as 1.552. The “Mutagenic [yes/no]” value in series [2] is “n^1)”. The corresponding values for “1,5-Bis[2-(2,3-epoxy-propyl)-4,6-dichloro-phenyl]-pentane [Example 2]” are 1.561 and “n^1)”. Turning to `C[Si]1(CCC2CCC3OC3C2)O[Si](C)(CCC2CCC3OC3C2)O[Si](C)(CCC2CCC3OC3C2)O[Si](C)(CCC2CCC3OC3C2)O1` (stereo not shown) [Reference Compound 1, 1,3,5,7-Tetrakis[2-(3,4-epoxycyclohexyl)-ethyl]-1,3,5,7-tetramethyl-cyclotetrasiloxane, reference compound], in series [1], the “Refractive Index” value was 1.496.

Consider `c1cc(OCC2CO2)ccc1Cc1ccc(OCC2CO2)cc1` (stereo not shown) [Reference Compound 3, Bis[4-(2,3-epoxy-propyloxy)-phenyl]-methane, reference compound], for which the “Refractive Index” value in series [1] worked out at 1.579. Same read-out and setting: for `Clc1cccc(CC2CO2)c1OCCC1CO1` (stereo not shown) [Example 6, 4-[2-(2,3-epoxy-propyl)-6-chloro-phenoxy]-1,2-epoxybutane] the value was 1.535. Consider `CC(C)(c1cc(Br)c(OCCCC2CO2)c(Br)c1)c1cc(Br)c(OCCCC2CO2)c(Br)c1` (stereo not shown) [Example 5, 2,2-Bis[3,5-dibromo-4-(4,5-epoxy-pentyloxy)-phenyl]-propane], for which the “Refractive Index” value in series [1] is given as 1.604. Further, in series [2], the “Mutagenic [yes/no]” value is on record as “n^1)”. On to `CC(C)(c1ccc(OCCCC2CO2)cc1)c1ccc(OCCCC2CO2)cc1` (stereo not shown) [Reference Compound 5, 2,2-Bis[4-(4,5-epoxy-pentyloxy)-phenyl]-propane, reference compound], for which, in series [1], the “Refractive Index” value stood at 1.551.

`CC(C)(c1cc(Br)c(OCCC2CO2)c(Br)c1)c1cc(Br)c(OCCC2CO2)c(Br)c1` (stereo not shown) [Example 4, 2,2-Bis[3,5-dibromo-4-(3,4-epoxy-butyloxy)-phenyl]-propane]: the “Refractive Index” value in series [1] worked out at 1.610. Further, in series [2], the “Mutagenic [yes/no]” value is reported as “n^1)”. Turning to `CC(C)(c1cc(Cl)c(OCCCC2CO2)c(Cl)c1)c1cc(Cl)c(OCCCC2CO2)c(Cl)c1` (stereo not shown) [Example 3, 2,2-Bis[3,5-dichloro-4-(4,5-epoxy-pentyloxy)-phenyl]-propane], the “Refractive Index” value in series [1] stood at 1.571. In series [2], the “Mutagenic [yes/no]” value is “n^1)”. Turning to `C[Si](CCC1CCC2OC2C1)(CCC1CCC2OC2C1)c1ccccc1` (stereo not shown) [Reference Compound 2, Bis[2-(3,4-epoxycyclohexyl)-ethyl]-methyl-phenyl-silane, reference compound], in series [1], the “Refractive Index” value was determined as 1.536.

For the origin of these results see US7939580B2, “Dental composition containing epoxy functional polymerizable compounds” (3M Innovative Properties Company, priority 2004, dated 2011).
